The record followed here is ChEMBL document CHEMBL2440082, “New non-symmetrical choline kinase inhibitors” (Bioorg Med Chem, 2013).

Activity calls are given as the source filed them. The calls are words filed in the database; no cut-off is given here.

As a reminder, the inhibition is the relative decrease from the control value, in per cent. As usually defined, the IC50 is the concentration that gives 50% inhibition.

The species named for data set [1] is Homo sapiens. Kind of data set: Inhibition of human ChoK activity assessed as inhibition of incorporation of [14C] from methyl[14C]choline into phosphocholine at 50 uM after 20 mins by scintillation counting.
For data set [2], the species on record is Homo sapiens. In words: Inhibition of human ChoK activity assessed as inhibition of incorporation of [14C] from methyl[14C]choline into phosphocholine at 10 uM after 20 mins by scintillation counting.
For data set [3], the system named is HepG2. Kind of data set: Antiproliferative activity against human HepG2 cells at 50 uM after 24 hrs by crystal violet-staining assay. In kind it is functional.
For data set [4], the system named is HepG2. Kind of data set: Antiproliferative activity against human HepG2 cells at 1 uM after 24 hrs by crystal violet-staining assay. The format is functional.
For data set [5], the system named is HepG2. Kind of data set: Antiproliferative activity against human HepG2 cells at 5 uM after 24 hrs by crystal violet-staining assay. The format is functional.
Data set [6] relates to HepG2. Kind of data set: Antiproliferative activity against human HepG2 cells at 10 uM after 24 hrs by crystal violet-staining assay. The format is functional.
The test system of data set [7] is HepG2. Kind of data set: Cytotoxicity against human HepG2 cells at 10 uM after 24 hrs by crystal violet-staining assay. The format is cell-based. As to conditions: hepg2, 24 h.
Data set [8] concerns HepG2. In words: Cytotoxicity against human HepG2 cells at 50 uM after 24 hrs by crystal violet-staining assay. The format is cell-based. As to conditions: hepg2, 24 h.
The nature of data set [9]: Inhibition of human ChoK activity assessed as inhibition of incorporation of [14C] from methyl[14C]choline into phosphocholine after 20 mins by scintillation counting.

Regarding `CN(C)c1cc[n+](Cc2ccc(CCCCc3ccc(CNc4cccc(O)c4)cc3)cc2)cc1.[Br-]`, the results for the inhibition in [1] and in data set [2] were 12.9% and 3.8%, respectively. Besides, the Activity in data set [3] turned out to be 71.1%; in data set [4], 4.58%; in [5], 13.09%; in data set [6], 30.86%.
For `CN(C)c1cc[n+](Cc2ccc(-c3ccc(Cn4cnc(N)c5ncnc4-5)cc3)cc2)cc1.[Br-]`, the inhibition in data set [1] turned out to be 71.4%; in [2], 62.3%. Also, the results for the Activity in [3] and in [6] were 7% and 10%, respectively.
On to `Oc1cccc(NCc2ccc(C[n+]3ccc(N4CCCC4)cc3)cc2)c1.[Br-]`, for which the inhibition in data set [1] stood at 41.3%. In [2], the inhibition entry is “inactive”. For the same molecule, the Activity in data set [3] is 8.53%; in data set [4], 2.91%; in data set [5], 13.43%; in [6], 9.54%.
Turning to `Nc1cccc(OCc2ccc(CCCCc3ccc(C[n+]4ccc(N5CCCC5)cc4)cc3)cc2)c1.[Br-]`, the inhibition in data set [1] was 21.6%. The inhibition result in data set [2] is “inactive”. Further, the Activity in [4] was 57.69%; in [7], “Toxic”; in data set [8] it was “Toxic”; in [5] it was 83.21%.
For the molecule `CN(C)c1cc[n+](Cc2ccc(CCCCc3ccc(COc4cccc(N)c4)cc3)cc2)cc1.[Br-]`, the inhibition entry in [1] and in data set [2] was “inactive” each time. The Activity in data set [3] was determined as 46.67%; in [4], 10.14%; in data set [5], 18.32%; in data set [6], 22.68%.
On to `Oc1cccc(NCc2ccc(CCCCc3ccc(C[n+]4ccc(N5CCCC5)cc4)cc3)cc2)c1.[Br-]`, for which the inhibition in data set [1] was 18%. For the same molecule, the inhibition result in [2] is “inactive”. Moreover, the result in [4] was inactive. Also, the Activity entry in data set [7] is recorded as “Toxic”; in data set [8], “Toxic”; in [5], 48.96%.
Take `CN(C)c1cc[n+](Cc2ccc(CNc3cccc(O)c3)cc2)cc1.[Br-]`: the inhibition turned out to be 52.4% in data set [1] and 27.5% in data set [2]. Also, the Activity in [3] amounted to 54.51%; in [4] it was 7.74%; in data set [5], 13.01%; in data set [6] it was 24.38%.
As for `CN(C)c1cc[n+](Cc2ccc(CCc3ccc(COc4cccc(N)c4)cc3)cc2)cc1.[Br-]`, the inhibition in [1] was determined as 21.9%. In addition, in data set [2], the inhibition entry is “inactive”. Moreover, the Activity was determined as 59.54% in data set [3], 7.42% in data set [4], 6.98% in [5] and 30.53% in data set [6].
For `Nc1cccc(OCc2ccc(CCc3ccc(C[n+]4ccc(N5CCCC5)cc4)cc3)cc2)c1.[Br-]`, the inhibition entry in data set [1] and in [2] was “inactive” in each case. Also, the Activity in data set [4] is listed as 55.37%; in data set [7] it was “Toxic”; in [8], “Toxic”; in data set [5], 76.04%.
Turning to `CN(C)c1cc[n+](Cc2ccc(CCc3ccc(CNc4cccc(O)c4)cc3)cc2)cc1.[Br-]`, the inhibition in [1] came to 39.5%. Further, in [2], the inhibition result was “inactive”. Further, the Activity came to 73.4% in data set [3], 5.56% in [4], 18.43% in data set [5] and 34.1% in data set [6].
As for `Oc1cccc(NCc2ccc(CCc3ccc(C[n+]4ccc(N5CCCC5)cc4)cc3)cc2)c1.[Br-]`, the inhibition in [1] amounted to 13.6%. Besides, the inhibition result in data set [2] was “inactive”. The Activity in [4] is recorded as 11.19%; in [7], “Toxic”; in data set [8] it was “Toxic”; in data set [5], 67.39%.
Regarding `Nc1cccc(OCc2ccc(C[n+]3ccc(N4CCCC4)cc3)cc2)c1`, the inhibition was determined as 12.9% in data set [1] and 3.8% in data set [2]. For the same molecule, the result in data set [3], in [4], in [5] and in data set [6] was inactive.
Turning to `CN(C)c1cc[n+](Cc2ccc(-c3ccc(COc4cccc(N)c4)cc3)cc2)cc1.[Br-]`, the values for the inhibition in [1] and in [2] were 79.8% and 54.4%, respectively. Moreover, the Activity in [4] is 8.5%; in [8], “Toxic”; in [5], 16.23%; in data set [6], 24.4%. Further, the IC50 in [9] stood at 6.37 µM.
`Oc1cccc(NCc2ccc(-c3ccc(C[n+]4ccc(N5CCCC5)cc4)cc3)cc2)c1.[Br-]`: the inhibition in data set [1] is 28.2%. In [2], the inhibition result is “inactive”. The Activity in data set [4] was 48.52%; in data set [7], “Toxic”; in data set [8] it was “Toxic”; in data set [5], 52.99%.
For `Nc1cccc(OCc2ccc(-c3ccc(C[n+]4ccc(N5CCCC5)cc4)cc3)cc2)c1.[Br-]`, the inhibition in [1] was 20.8%. Besides, the inhibition entry in [2] was “inactive”. Moreover, the Activity in data set [4] was 40.52%; in [7], “Toxic”; in [8], “Toxic”; in data set [5], 57.24%.
Regarding `CN(C)c1cc[n+](Cc2ccc(-c3ccc(CNc4cccc(O)c4)cc3)cc2)cc1.[Br-]`, the inhibition in data set [1] turned out to be 66.2%; in data set [2], 54.2%. Besides, the Activity in data set [3] is reported as 24.4%; in [6], 9.86%. Also, the result in data set [4] and in data set [5] was inactive. Further, the IC50 in data set [9] was determined as 7.89 µM.
For the molecule `CN(C)c1cc[n+](Cc2ccc(CCCCc3ccc(Cn4cnc5c(N)ncnc54)cc3)cc2)cc1.[Br-]`, the inhibition in data set [1] was determined as 89.7%; in [2], 66.7%. In addition, the figures for the Activity in [3] and in data set [6] were 45.5% and 10.2%, respectively.
Consider `CN(C)c1cc[n+](Cc2ccc(COc3cccc(N)c3)cc2)cc1.[Br-]`, for which the inhibition in [1] was 37.7%; in data set [2], 14.8%. The same molecule yielded an Activity in data set [3] of 22.48%. For the same molecule, the outcome in data set [4], in data set [5] and in data set [6] was inactive.
